Measured values reported in paper PMC3574212 (Journal of medicinal chemistry, 2013).
Entries after “also recorded” stand apart in the source; their conditions may differ.

Legend:
[1] = target: T1, EPAC2 (Mus musculus, UniProt Q9EQZ6); test: cAMP-mediated EPAC2 GEF activity; format: biochemical; details: 25 µM compound in the presence of 25 µM cAMP
T1 sequence (Q9EQZ6 1-1011): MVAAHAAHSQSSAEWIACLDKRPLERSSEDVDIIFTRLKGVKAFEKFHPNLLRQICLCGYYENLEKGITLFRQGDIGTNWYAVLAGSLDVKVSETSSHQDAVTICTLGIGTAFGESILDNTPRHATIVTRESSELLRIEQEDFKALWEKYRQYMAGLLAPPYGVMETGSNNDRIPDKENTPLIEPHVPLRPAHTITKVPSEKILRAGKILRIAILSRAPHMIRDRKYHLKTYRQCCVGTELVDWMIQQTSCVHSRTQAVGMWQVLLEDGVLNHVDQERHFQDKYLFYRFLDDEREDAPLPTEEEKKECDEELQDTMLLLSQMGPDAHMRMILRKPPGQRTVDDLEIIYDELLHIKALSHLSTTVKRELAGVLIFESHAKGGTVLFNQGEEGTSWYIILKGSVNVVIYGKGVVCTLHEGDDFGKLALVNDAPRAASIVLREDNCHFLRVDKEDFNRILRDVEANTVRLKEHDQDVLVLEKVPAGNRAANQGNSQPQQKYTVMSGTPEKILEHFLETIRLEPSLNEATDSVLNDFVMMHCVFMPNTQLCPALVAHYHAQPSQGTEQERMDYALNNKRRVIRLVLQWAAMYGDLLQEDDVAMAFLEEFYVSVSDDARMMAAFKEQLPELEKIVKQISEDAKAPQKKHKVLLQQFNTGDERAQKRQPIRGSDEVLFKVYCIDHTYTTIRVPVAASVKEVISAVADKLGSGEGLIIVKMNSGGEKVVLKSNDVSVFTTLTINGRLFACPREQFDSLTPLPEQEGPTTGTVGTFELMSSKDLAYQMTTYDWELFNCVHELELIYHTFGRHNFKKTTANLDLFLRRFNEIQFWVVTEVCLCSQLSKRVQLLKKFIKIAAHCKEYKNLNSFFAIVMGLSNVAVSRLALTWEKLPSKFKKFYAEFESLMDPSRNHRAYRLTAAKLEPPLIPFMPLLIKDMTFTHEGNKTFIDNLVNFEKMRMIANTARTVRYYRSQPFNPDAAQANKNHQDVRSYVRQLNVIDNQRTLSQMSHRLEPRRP

[2] = test system: HEK293 cells stably expressing the PKA sensor AKAR3; test: FRET-based live-cell assay for PKA; details: 10 µM 20i, 10 µM 8-Br-cAMP-AM
[3] = target: T2, HEK293/EPAC1-FL (Homo sapiens, UniProt O95398); test: FRET-based live-cell assay for EPAC1 activation; details: 10 µM 20i, 10 µM 007-AM
T2 sequence (O95398 1-923): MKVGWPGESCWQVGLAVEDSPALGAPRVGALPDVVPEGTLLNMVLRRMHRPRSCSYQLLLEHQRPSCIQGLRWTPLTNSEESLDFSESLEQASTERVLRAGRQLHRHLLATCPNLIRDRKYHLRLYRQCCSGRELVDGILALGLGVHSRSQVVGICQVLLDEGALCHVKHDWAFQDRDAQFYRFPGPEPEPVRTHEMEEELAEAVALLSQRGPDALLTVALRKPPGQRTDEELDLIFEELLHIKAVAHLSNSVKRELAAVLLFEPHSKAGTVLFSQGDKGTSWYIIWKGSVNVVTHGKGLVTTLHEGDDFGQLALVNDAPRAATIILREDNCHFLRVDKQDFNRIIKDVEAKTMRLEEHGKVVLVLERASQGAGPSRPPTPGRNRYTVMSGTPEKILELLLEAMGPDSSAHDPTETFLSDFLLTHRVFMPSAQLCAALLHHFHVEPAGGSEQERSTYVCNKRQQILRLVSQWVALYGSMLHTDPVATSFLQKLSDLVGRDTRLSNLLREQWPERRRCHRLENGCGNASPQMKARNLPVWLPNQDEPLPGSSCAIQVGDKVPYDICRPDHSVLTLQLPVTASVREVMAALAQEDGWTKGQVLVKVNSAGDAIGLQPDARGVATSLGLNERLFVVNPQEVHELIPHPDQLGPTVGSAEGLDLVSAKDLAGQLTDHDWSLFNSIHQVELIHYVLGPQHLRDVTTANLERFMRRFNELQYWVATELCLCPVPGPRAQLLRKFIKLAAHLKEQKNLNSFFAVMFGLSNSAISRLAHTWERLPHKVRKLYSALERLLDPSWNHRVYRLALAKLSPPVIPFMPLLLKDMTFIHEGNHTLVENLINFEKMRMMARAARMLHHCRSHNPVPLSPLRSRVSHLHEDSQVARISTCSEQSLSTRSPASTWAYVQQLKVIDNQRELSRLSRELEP

[4] = target: HEK293/EPAC2-FL cells (Homo sapiens, UniProt Q8WZA2); test: FRET-based live-cell assay for EPAC2 activation; details: 10 µM 20i pretreatment, 10 µM 007-AM
[5] = target: T3, EPAC1 (Homo sapiens, UniProt O95398); test: cAMP-mediated EPAC1 GEF activity; format: biochemical; details: 25 µM compound in the presence of 25 µM cAMP
T3 sequence (O95398 1-923): T2 sequence (O95398 1-923)

[6] = test system: type II PKA holoenzyme; test: Counter screening assay, type II PKA holoenzyme kinase activity; format: biochemical; details: 25 µM compound, 0.1 mM cAMP
[7] = test system: type I PKA holoenzyme; test: Counter screening assay, type I PKA holoenzyme kinase activity; format: biochemical; details: 25 µM compound, 0.1 mM cAMP
[8] = target: T1, EPAC2; test: 8-NBD-cAMP competition binding assay; details: for Relative Potency (RA): RA = IC50, cAMP/ IC50, compound
[9] = target: T3, EPAC1; details: cAMP-mediated EPAC1 GEF activity; ref 18b; cited from earlier work

Chain of HEK293/EPAC2-FL cells (Q8WZA2 whole entry): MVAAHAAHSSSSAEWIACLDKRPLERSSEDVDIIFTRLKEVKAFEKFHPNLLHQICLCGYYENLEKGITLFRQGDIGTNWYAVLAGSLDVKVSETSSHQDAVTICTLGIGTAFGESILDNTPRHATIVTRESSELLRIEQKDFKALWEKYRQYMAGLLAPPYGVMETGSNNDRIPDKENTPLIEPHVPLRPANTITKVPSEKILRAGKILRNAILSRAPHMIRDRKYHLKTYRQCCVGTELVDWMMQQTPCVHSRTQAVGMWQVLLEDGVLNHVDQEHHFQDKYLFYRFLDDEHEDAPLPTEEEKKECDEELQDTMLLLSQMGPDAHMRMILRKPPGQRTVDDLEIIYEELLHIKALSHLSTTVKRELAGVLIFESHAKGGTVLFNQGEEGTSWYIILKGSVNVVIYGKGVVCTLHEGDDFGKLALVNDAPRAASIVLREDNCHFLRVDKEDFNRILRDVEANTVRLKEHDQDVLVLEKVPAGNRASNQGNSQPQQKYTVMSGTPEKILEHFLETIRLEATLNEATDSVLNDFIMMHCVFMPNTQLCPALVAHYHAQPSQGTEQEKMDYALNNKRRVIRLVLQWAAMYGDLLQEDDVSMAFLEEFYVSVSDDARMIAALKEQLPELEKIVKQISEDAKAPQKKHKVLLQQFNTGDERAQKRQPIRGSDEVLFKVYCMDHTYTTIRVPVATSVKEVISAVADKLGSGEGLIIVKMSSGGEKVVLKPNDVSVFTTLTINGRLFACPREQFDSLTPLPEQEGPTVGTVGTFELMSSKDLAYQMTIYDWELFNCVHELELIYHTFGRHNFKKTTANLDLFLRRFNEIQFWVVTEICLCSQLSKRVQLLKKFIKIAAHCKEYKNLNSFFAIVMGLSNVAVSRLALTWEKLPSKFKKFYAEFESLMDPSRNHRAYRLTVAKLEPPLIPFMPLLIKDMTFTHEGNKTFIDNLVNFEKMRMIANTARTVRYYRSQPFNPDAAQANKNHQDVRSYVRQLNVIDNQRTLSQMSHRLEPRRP

Row | Compound | Inhibition of EPAC2 GEF activity [1] | Inhibition of 8-Br-cAMP-AM induced PKA activation (AKAR3 FRET) [2] | Block of 007-AM induced decrease of FRET (EPAC1 activation) [3] | Block of 007-AM induced decrease of FRET (EPAC2 activation) [4] | Inhibition of EPAC1-mediated Rap1-GDP exchange activity [5] | Effect on cAMP-induced type II PKA holoenzyme activation [6] | Effect on cAMP-induced type I PKA holoenzyme activation [7] | Relative Potency (RA) [8] | Selectivity EPAC2 vs EPAC1 of HTS hits [9] | fold more potent than cAMP ([8]; 8-NBD-cAMP competition in binding EPAC2)
1 | Cc1cc(C)c(S(=O)(=O)n2cc(C)cc2C)c(C)c1 [Compound 20i, 2,4-Dimethyl-1-(2,4,6-trimethylbenzenesulfonyl)-1H-pyrrole] | inhibit EPAC2 GEF activity to basal levels | not inhibited; also recorded: did not affect PKA activation | incapable of blocking; also recorded: not EPAC1 activation | fully blocked; also recorded: blocked EPAC2 | no inhibition; also recorded: not to inhibit | not to significantly alter | not to significantly alter | – | – | –
2 | Nc1ccc(Nc2ccc(N)cc2S(=O)(=O)O)cc1 [Compound 2] | – | – | – | – | – | – | – | 2.2 | not exclusively specific for EPAC2 | –
3 | Cc1cc(C)c(Nc2cc(Cl)ccc2Cl)c(C)c1 [Compound 14c, (2,5-Dichlorophenyl)-(2,4,6-trimethylphenyl)amine] | inhibit EPAC2 GEF activity to basal levels | – | – | – | no inhibition; also recorded: not to inhibit | not to significantly alter | not to significantly alter | 100 | – | about 100 fold
4 | Cc1ccc(S(=O)(=O)c2c(C)cc(C)cc2C)cc1 [Compound 1] | inhibit EPAC2 GEF activity to basal levels | – | – | – | no inhibition; also recorded: not to inhibit | not to significantly alter | not to significantly alter | – | – | –
